pIC50: −log10 of the molar value.

In general, pIC50 refers to the IC50 on a negative log10 scale, so that one unit is a factor of ten. A lower pIC50 goes with a high IC50.

T1 sequence (Q9P2K8 whole entry): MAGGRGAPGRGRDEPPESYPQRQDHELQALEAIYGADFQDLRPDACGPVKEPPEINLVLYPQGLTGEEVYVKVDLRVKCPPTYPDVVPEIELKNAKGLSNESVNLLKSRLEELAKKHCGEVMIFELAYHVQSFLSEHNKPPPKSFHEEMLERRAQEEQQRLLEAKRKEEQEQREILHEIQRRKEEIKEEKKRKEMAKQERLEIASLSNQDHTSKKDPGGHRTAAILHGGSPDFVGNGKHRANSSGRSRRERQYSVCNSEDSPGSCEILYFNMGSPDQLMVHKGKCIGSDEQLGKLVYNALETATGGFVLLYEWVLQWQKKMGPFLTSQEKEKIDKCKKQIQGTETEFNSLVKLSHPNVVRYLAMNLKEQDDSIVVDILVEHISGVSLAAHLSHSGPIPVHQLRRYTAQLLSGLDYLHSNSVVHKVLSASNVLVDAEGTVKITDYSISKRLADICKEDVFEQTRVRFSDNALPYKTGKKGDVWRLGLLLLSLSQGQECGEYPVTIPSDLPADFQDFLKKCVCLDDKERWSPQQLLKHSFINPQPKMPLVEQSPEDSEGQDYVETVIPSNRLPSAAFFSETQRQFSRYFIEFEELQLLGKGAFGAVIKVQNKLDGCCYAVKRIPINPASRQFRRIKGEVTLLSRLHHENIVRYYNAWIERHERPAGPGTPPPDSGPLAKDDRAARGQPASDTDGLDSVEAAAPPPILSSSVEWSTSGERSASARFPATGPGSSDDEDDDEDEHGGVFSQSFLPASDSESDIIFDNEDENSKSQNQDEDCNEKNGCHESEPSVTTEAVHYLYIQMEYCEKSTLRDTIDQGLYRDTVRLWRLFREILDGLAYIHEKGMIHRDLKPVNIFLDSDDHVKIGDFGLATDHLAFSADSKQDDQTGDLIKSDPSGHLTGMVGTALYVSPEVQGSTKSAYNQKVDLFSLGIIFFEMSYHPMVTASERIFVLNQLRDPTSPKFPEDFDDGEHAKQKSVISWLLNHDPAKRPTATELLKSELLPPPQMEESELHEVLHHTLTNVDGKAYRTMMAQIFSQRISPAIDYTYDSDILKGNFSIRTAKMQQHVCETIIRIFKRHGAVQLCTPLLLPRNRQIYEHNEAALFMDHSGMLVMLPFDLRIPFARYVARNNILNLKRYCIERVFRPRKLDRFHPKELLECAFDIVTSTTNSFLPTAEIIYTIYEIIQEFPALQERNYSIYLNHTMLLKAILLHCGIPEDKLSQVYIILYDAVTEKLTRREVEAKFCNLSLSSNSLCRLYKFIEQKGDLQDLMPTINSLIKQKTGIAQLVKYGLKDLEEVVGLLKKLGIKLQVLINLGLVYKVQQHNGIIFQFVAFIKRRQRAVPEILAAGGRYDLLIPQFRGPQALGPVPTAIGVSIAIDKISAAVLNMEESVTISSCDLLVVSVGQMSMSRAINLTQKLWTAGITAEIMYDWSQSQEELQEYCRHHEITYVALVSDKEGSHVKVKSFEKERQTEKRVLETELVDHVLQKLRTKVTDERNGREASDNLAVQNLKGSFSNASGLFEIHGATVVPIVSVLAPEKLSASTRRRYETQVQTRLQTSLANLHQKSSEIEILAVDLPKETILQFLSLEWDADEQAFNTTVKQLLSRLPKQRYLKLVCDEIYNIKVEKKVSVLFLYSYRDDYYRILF

This experiment addresses T1, GCN2 (Homo sapiens, UniProt Q9P2K8).
T1 construct: purchased Carma Biosciences (so in the source)
Nature of the experiment: TR-FRET biochemical assay for inhibition of GCN2 activity. The following applies: 2 nM GCN2, 100 nM GFP-eIF2α, 150 μM ATP, 1.5 hours at 25° C. The method, then:
Exemplary compounds from the above Examples were tested for ability to inhibit GCN2 activity using a time resolved fluorescence energy transfer (TR-FRET) assay. Assay procedures and results are described below for Examples 12-105.
GCN2 protein was obtained from Carma Biosciences (cat #05-153). The protein was diluted in assay buffer (ThermoFisher Scientific, #PV6135), 2 mM dithiothreitol (DTT), to obtain a final concentration of 2 nM and 5 μL was plated in a 384-well white assay plate. Test compounds were serially diluted to 11 concentrations by 3-fold dilution in DMS0 and 10 nL of stock was plated into 384 well white assay plate. DMS0 was used as a vehicle control. GFP-eIF2α protein was obtained from ThermoFisher (cat #PV4809). The protein was diluted in assay buffer to a 2× concentration of 200 nM along with 300 μM ATP (final concentration of 100 nM GFP-eIF2α and 150 μM ATP) in the presence of 2 mM DTT and a […] was added to each well containing the GCN2 protein and test compound. The plate was incubated in the dark at 25° C. for 1.5 hours, shaking at 1250 rpm. Tb-anti P-eIF2α (ThermoFisher cat #PV4815) was diluted to a to a concentration of 1 nM in TR-FRET Dilution Buffer (ThermoFisher cat #PV3574). 10 μL of the Tb-anti P-eIF2a solution was added to the TR-FRET reaction. The plate was incubated in the dark for 2 h at 25° C. shaking at 600 rpm. The FRET signal from the plate was read on a Envision (PerkinElmer) plate reader: • Label 1: Excitation: 340 nm, bandwidth 30 nm; Emission: 495 nm, bandwidth 10 nm. Lag time: 100 μsec. Integration time: 400 μsec. Flashes: 30. • Label 2: Excitation: 340 nm, bandwidth 30 nm; Emission: 520 nm, bandwidth 25 nm. Lag time: 100 μsec. Integration time: 400 μsec. Flashes: 30
The data were analyzed using GraphPad Prism employing a 4-parameter sigmoidal curve fit.
As to `COc1ncc(F)cc1S(=O)(=O)Nc1ccc(F)c(COc2cnn3cnc(C)c3c2)c1F` [Compound 82, N-[2,4-difluoro-3-[([5-methylimidazo[1,5-b]pyridazin-3-yl]oxy)methyl]phenyl]-5-fluoro-2-methoxypyridine-3-sulfonamide], the pIC50 is over 7.30.
For `COc1ncc(Cl)cc1S(=O)(=O)Nc1ccc(F)c(OCc2cnc3[nH]ncc3c2)c1F` [Compound 4, 5-chloro-N-(2,4-difluoro-3-[1H-pyrazolo[3,4-b]pyridin-5-ylmethoxy]phenyl)-2-methoxypyridine-3-sulfonamide] the value was over 7.30; for `COc1ncc(C#N)cc1S(=O)(=O)Nc1ccc(F)c(COc2cnc3[nH]nc(C)c3c2)c1F` [Compound 50, 5-cyano-N-[2,4-difluoro-3-[([3-methyl-1H-pyrazolo[3,4-b]pyridin-5-yl]oxy)methyl]phenyl]-2-methoxypyridine-3-sulfonamide], over 7.30; for `COc1ncc(Cl)cc1S(=O)(=O)Nc1ccc(F)c(CCc2cnc3n2CCOC3)c1F` [Compound 5, 5-chloro-N-[2,4-difluoro-3-(2-[5H,6H,8H-imidazo[2,1-c][1,4]oxazin-3-yl]ethyl)phenyl]-2-methoxypyridine-3-sulfonamide], under 6.00.
For `COc1ncc(Cl)cc1S(=O)(=O)Nc1ccc(F)c(CCc2ccn3cncc3c2)c1F` [Compound 19, 5-chloro-N-[2,4-difluoro-3-(2-[imidazo[1,5-a]pyridin-7-yl]ethyl)phenyl]-2-methoxypyridine-3-sulfonamide] the value was under 6.00; for `COc1ncc(F)cc1S(=O)(=O)Nc1ccc(F)c(CCc2cnc3cn(C(C)C)nc3c2)c1F` [Compound 37, N-[2,4-difluoro-3-(2-[2-isopropylpyrazolo[4,3-b]pyridin-6-yl]ethyl)phenyl]-5-fluoro-2-methoxypyridine-3-sulfonamide], 6.30 to 7.30; for `COc1ncc(F)cc1S(=O)(=O)Nc1ccc(F)c(COc2cnc3[nH]nc(C)c3c2-c2ccccc2)c1F` [Compound 85, N-[2,4-difluoro-3-[([3-methyl-4-phenyl-1H-pyrazolo[3,4-b]pyridin-5-yl]oxy)methyl]phenyl]-5-fluoro-2-methoxypyridine-3-sulfonamide], 6.30 to 7.30.
For `COc1ncc(C#N)cc1S(=O)(=O)Nc1ccc(F)c(NCc2cnc3[nH]nc(C)c3c2)c1F` [Compound 49, 5-cyano-N-[2,4-difluoro-3-[([3-methyl-1H-pyrazolo[3,4-b]pyridin-5-yl]methyl)amino]phenyl]-2-methoxypyridine-3-sulfonamide] the value was 6.30 to 7.30.
For `Cc1ncc(F)cc1S(=O)(=O)Nc1ccc(F)c(COc2cnc3[nH]ncc3c2)c1F` [Compound 30, N-(3-(((1H-pyrazolo[3,4-b]pyridin-5-yl)oxy)methyl)-2,4-difluorophenyl)-5-fluoro-2-methylpyridine-3-sulfonamide], the pIC50 was over 7.30.
For `COc1ncc(Cl)cc1S(=O)(=O)Nc1ccc(F)c(COc2cnc3[nH]ncc3c2)c1F` [Compound 1, 5-chloro-N-[2,4-difluoro-3-([1H-pyrazolo[3,4-b]pyridin-5-yloxy]methyl)phenyl]-2-methoxypyridine-3-sulfonamide] the value was over 7.30; for `COc1ncc(F)cc1S(=O)(=O)Nc1ccc(F)c(COc2cnc3[nH]nc(CC(F)F)c3c2)c1F` [Compound 75, N-[3-([[3-(2,2-difluoroethyl)-1H-pyrazolo[3,4-b]pyridin-5-yl]oxy]methyl)-2,4-difluorophenyl]-5-fluoro-2-methoxypyridine-3-sulfonamide], over 7.30; for `COc1ncc(F)cc1S(=O)(=O)Nc1ccc(F)c(COc2cnc3[nH]nc(C)c3c2C(C)C)c1F` [Compound 88, N-[2,4-difluoro-3-[([4-isopropyl-3-methyl-1H-pyrazolo[3,4-b]pyridin-5-yl]oxy)methyl]phenyl]-5-fluoro-2-methoxypyridine-3-sulfonamide], under 6.00.
Consider `COc1ncc(Cl)cc1S(=O)(=O)Nc1ccc(F)c(CCc2cc3cn[nH]c3cn2)c1F` [Compound 13, 5-chloro-N-[2,4-difluoro-3-(2-[1H-pyrazolo[3,4-c]pyridin-5-yl]ethyl)phenyl]-2-methoxypyridine-3-sulfonamide], for which the pIC50 is under 6.00.
`COc1ncc(F)cc1S(=O)(=O)Nc1ccc(F)c(COc2cnc3[nH]nc(C)c3c2-c2ccncc2)c1F` [Compound 87, N-[2,4-difluoro-3-([[3-methyl-4-(pyridin-4-yl)-1H-pyrazolo[3,4-b]pyridin-5-yl]oxy]methyl)phenyl]-5-fluoro-2-methoxypyridine-3-sulfonamide] showed a pIC50 of 6.30 to 7.30.
For `COc1ncc(F)cc1S(=O)(=O)Nc1ccc(F)c(COc2cnc3[nH]nc(C)c3c2N2CCCCC2)c1F` [Compound 94, N-(2,4-difluoro-3-(((3-methyl-4-(piperidin-1-yl)-1H-pyrazolo[3,4-b]pyridin-5-yl)oxy)methyl)phenyl)-5-fluoro-2-methoxypyridine-3-sulfonamide] the value was 6.30 to 7.30; for `COc1ncc(F)cc1S(=O)(=O)Nc1ccc(F)c(COc2cnc3[nH]nc(C#N)c3c2)c1F` [Compound 73, N-(3-(((3-cyano-1H-pyrazolo[3,4-b]pyridin-5-yl)oxy)methyl)-2,4-difluorophenyl)-5-fluoro-2-methoxypyridine-3-sulfonamide], over 7.30.
For the compound `COc1ncc(Cl)cc1S(=O)(=O)Nc1ccc(F)c(CCc2ccc3[nH]ncc3n2)c1F` [Compound 11, 5-chloro-N-[2,4-difluoro-3-(2-[1H-pyrazolo[4,3-b]pyridin-5-yl]ethyl)phenyl]-2-methoxypyridine-3-sulfonamide], the pIC50 was under 6.00.
As for `COc1ncc(C#N)cc1S(=O)(=O)Nc1ccc(F)c(CCc2cnc3[nH]ncc3c2)c1F` [Compound 10, 5-cyano-N-[2,4-difluoro-3-(2-[1H-pyrazolo[3,4-b]pyridin-5-yl]ethyl)phenyl]-2-methoxypyridine-3-sulfonamide], the figure is over 7.30; as for `C#Cc1n[nH]c2ncc(OCc3c(F)ccc(NS(=O)(=O)c4cc(F)cnc4OC)c3F)cc12` [Compound 69, N-[3-[([3-ethynyl-1H-pyrazolo[3,4-b]pyridin-5-yl]oxy)methyl]-2,4-difluorophenyl]-5-fluoro-2-methoxypyridine-3-sulfonamide], over 7.30; as for `COc1ncc(C#N)cc1S(=O)(=O)Nc1ccc(F)c(COc2cnc3[nH]nc(C(C)C)c3c2)c1F` [Compound 55, 5-cyano-N-[2,4-difluoro-3-[([3-isopropyl-1H-pyrazolo[3,4-b]pyridin-5-yl]oxy)methyl]phenyl]-2-methoxypyridine-3-sulfonamide], 6.30 to 7.30.
The compound `CCc1n[nH]c2ncc(OCc3c(F)ccc(NS(=O)(=O)c4cc(F)cnc4OC)c3F)cc12` [Compound 39, N-[3-[([3-ethyl-1H-pyrazolo[3,4-b]pyridin-5-yl]oxy)methyl]-2,4-difluorophenyl]-5-fluoro-2-methoxypyridine-3-sulfonamide] had a pIC50 of over 7.30.
As for `CNc1nccn2c(CCc3c(F)ccc(NS(=O)(=O)c4cc(Cl)cnc4OC)c3F)cnc12` [Compound 31, 5-chloro-N-(2,4-difluoro-3-(2-(8-(methylamino)imidazo[1,2-a]pyrazin-3-yl)ethyl)phenyl)-2-methoxypyridine-3-sulfonamide], the figure is over 7.30.

These data come from patent US20240150345A1, “GCN2 MODULATING COMPOUNDS AND USES THEREOF” (HiberCell, Inc., priority 2021, published 2024).
